Experimental data: PubChem BioAssay AID256 (DTP/NCI, 2004)
Several values for one entry are separate records, joined by “and”; a condition that tells them apart may be missing. Equal entries are not always repeated. Inconclusive results and toxic doses are left out. How the source made its calls: active means survival T/C of 150% or more; inactive means T/C below 125% in these data.

System: CD2F1 mice, L1210 leukemia ip, survival T/C
Test: NCI In Vivo Anticancer Drug Screen. Data for tumor model L1210 Leukemia (intraperitoneal) in CD2F1 (CDF1) mice
Conditions: higher = longer survival
Procedure, shortened: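 Antitumor effect is scored in animals hosting a serially transplanted tumor. Values compare compound-dosed animals against vehicle-only controls as a simple quotient.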

[1] = endpoint: mean survival time, dose: 100.0 mg/kg/injection, schedule: Q01DX001 (ip), vehicle: saline
[2] = endpoint: mean survival time, dose: 200.0 mg/kg/injection, schedule: Q01DX001 (ip), vehicle: saline
[3] = endpoint: mean survival time, dose: 400.0 mg/kg/injection, schedule: Q01DX001 (ip), vehicle: saline
[4] = endpoint: mean survival time, dose: 12.5 mg/kg/injection, schedule: Q01DX009 (ip), vehicle: saline with Tween-80
[5] = endpoint: mean survival time, dose: 25.0 mg/kg/injection, schedule: Q01DX009 (ip), vehicle: saline with Tween-80
[6] = endpoint: mean survival time, dose: 100.0 mg/kg/injection, schedule: Q01DX009 (ip), vehicle: saline with Tween-80
[7] = endpoint: mean survival time, dose: 200.0 mg/kg/injection, schedule: Q01DX009 (ip), vehicle: saline with Tween-80
[8] = endpoint: mean survival time, dose: 400.0 mg/kg/injection, schedule: Q01DX009 (ip), vehicle: saline with Tween-80
[9] = endpoint: mean survival time, dose: 100.0 mg/kg/injection, schedule: Q01DX001 (ip), vehicle: saline with Tween-80
[10] = endpoint: mean survival time, dose: 200.0 mg/kg/injection, schedule: Q01DX001 (ip), vehicle: saline with Tween-80
[11] = endpoint: mean survival time, dose: 400.0 mg/kg/injection, schedule: Q01DX001 (ip), vehicle: saline with Tween-80
[12] = endpoint: mean survival time, dose: 100.0 mg/kg/injection, schedule: Q04DX003 (ip), vehicle: saline with Tween-80
[13] = endpoint: mean survival time, dose: 100.0 mg/kg/injection, schedule: Q04DX002 (ip), vehicle: saline with Tween-80

Measured: T/C

COc1cc2cnccc2cc1O
inactive: endpoint: mean survival time, dose: 25.0 mg/kg/injection, schedule: Q01DX009 (ip), vehicle: water 95 % of control | endpoint: mean survival time, dose: 50.0 mg/kg/injection, schedule: Q01DX009 (ip), vehicle: water 101 % of control | endpoint: mean survival time, dose: 100.0 mg/kg/injection, schedule: Q01DX009 (ip), vehicle: water 96 % of control

NC(=O)NC(=O)C1CCCCC1C(=O)O (configuration not stated)
inactive: [1] 103 % of control | [2] 101 % of control | [3] 109 % of control

C[N+]12CCC34C5=CC(=O)C(=O)C=C5[N+]5(C)C(=O)CC6OCC=C(C1)C(CC32)C6C45 (configuration not stated)
inactive: endpoint: mean survival time, dose: 75.0 mg/kg/injection, schedule: Q01DX001 (ip), vehicle: saline 106 % of control

NC(CS(=O)c1ccc(Cl)cc1)C(=O)O (configuration not stated)
inactive: endpoint: mean survival time, dose: 6.25 mg/kg/injection, schedule: Q01DX009 (ip), vehicle: saline with Tween-80 90 % of control | [4] 94 % of control | [5] 96 % of control

O=C(CC(=O)c1ccccc1O)c1ccccc1
inactive: [6] 91 % of control | [7] 88 % of control | [8] 94 % of control

CN(C)B(B(N(C)C)N(C)C)N(C)C
inactive: [1] 105 % of control | [2] 97 % of control | [3] 101 % of control

O=C(c1ccccc1)C(c1ccccc1)(c1ccccc1)c1ccccc1
inactive: [9] 93 % of control | [10] 89 % of control | [11] 89 % of control

CCCCCCC(=O)/C=C\C(C)=C\c1ccccc1
inactive: [9] 94 % of control | [6] 98 % of control | [10] 100 % of control | [7] 98 % of control | [11] 94 % of control | [8] 98 % of control

O=C(O)CCC(O)C(=O)O.[NH-]C1CCCCC1[NH-].[Pt+2] (configuration not stated)
inactive: endpoint: median survival time, dose: 3.12 mg/kg/injection, schedule: Q04DX003 (ip), vehicle: saline 120 % of control and 110 % of control | endpoint: median survival time, dose: 6.25 mg/kg/injection, schedule: Q04DX003 (ip), vehicle: saline 120 % of control
active: endpoint: median survival time, dose: 25.0 mg/kg/injection, schedule: Q04DX003 (ip), vehicle: saline 158 % of control | endpoint: median survival time, dose: 50.0 mg/kg/injection, schedule: Q04DX003 (ip), vehicle: saline 170 % of control and 186 % of control | endpoint: median survival time, dose: 100.0 mg/kg/injection, schedule: Q04DX003 (ip), vehicle: saline 365 % of control

Nc1nc2n[nH]nc2c(=O)[nH]1
active: [4] 150 % of control | [5] 151 % of control | endpoint: mean survival time, dose: 50.0 mg/kg/injection, schedule: Q01DX009 (ip), vehicle: other 154 % of control | endpoint: mean survival time, dose: 50.0 mg/kg/injection, schedule: Q01DX009 (ip), vehicle: saline with Tween-80 156 % of control and 158 % of control | endpoint: mean survival time, dose: 100.0 mg/kg/injection, schedule: Q01DX009 (ip), vehicle: other 153 % of control | endpoint: mean survival time, dose: 200.0 mg/kg/injection, schedule: Q01DX007 (ip), vehicle: other 150 % of control | endpoint: mean survival time, dose: 200.0 mg/kg/injection, schedule: Q01DX009 (ip), vehicle: other 153 % of control | endpoint: median survival time, dose: 50.0 mg/kg/injection, schedule: Q01DX009 (ip), vehicle: saline 164 % of control | endpoint: median survival time, dose: 100.0 mg/kg/injection, schedule: Q01DX009 (ip), vehicle: saline 164 % of control | endpoint: median survival time, dose: 200.0 mg/kg/injection, schedule: Q01DX009 (ip), vehicle: saline 164 % of control
inactive: endpoint: mean survival time, dose: 0.78 mg/kg/injection, schedule: Q01DX009 (ip), vehicle: saline with Tween-80 103 % of control | endpoint: mean survival time, dose: 1.56 mg/kg/injection, schedule: Q01DX009 (ip), vehicle: saline with Tween-80 115 % of control | endpoint: mean survival time, dose: 50.0 mg/kg/injection, schedule: Q03DX003 (ip), vehicle: other 120 % of control | endpoint: mean survival time, dose: 50.0 mg/kg/injection, schedule: Q04DX003 (ip), vehicle: other 111 % of control | endpoint: mean survival time, dose: 75.0 mg/kg/injection, schedule: Q01DX009 (ip), vehicle: saline with Tween-80 114 % of control | endpoint: mean survival time, dose: 100.0 mg/kg/injection, schedule: Q01DX001 (ip), vehicle: saline sonified 108 % of control | [6] 97 % of control and 107 % of control | endpoint: mean survival time, dose: 100.0 mg/kg/injection, schedule: Q04DX003 (ip), vehicle: other 123 % of control | endpoint: mean survival time, dose: 200.0 mg/kg/injection, schedule: Q01DX001 (ip), vehicle: saline sonified 108 % of control | endpoint: mean survival time, dose: 200.0 mg/kg/injection, schedule: Q01DX009 (ip), vehicle: saline sonified 106 % of control | [7] 97 % of control | endpoint: mean survival time, dose: 200.0 mg/kg/injection, schedule: Q03DX003 (ip), vehicle: other 120 % of control | endpoint: mean survival time, dose: 200.0 mg/kg/injection, schedule: Q04DX003 (ip), vehicle: other 119 % of control | endpoint: mean survival time, dose: 400.0 mg/kg/injection, schedule: Q01DX001 (ip), vehicle: saline sonified 112 % of control | endpoint: median survival time, dose: 400.0 mg/kg/injection, schedule: Q01DX009 (ip), vehicle: saline 111 % of control

O=CNc1ccc([N+](=O)[O-])cc1
inactive: [6] 101 % of control | [7] 94 % of control | [8] 91 % of control

[CH3][Sn]([CH3])([Cl])[c]1cc[c]([Sn]([CH3])([CH3])[Cl])cc1
inactive: endpoint: median survival time, dose: 0.12 mg/kg/injection, schedule: Q01DX009 (ip), vehicle: saline 100 % of control | endpoint: median survival time, dose: 0.25 mg/kg/injection, schedule: Q01DX009 (ip), vehicle: saline 101 % of control | endpoint: median survival time, dose: 0.5 mg/kg/injection, schedule: Q01DX009 (ip), vehicle: saline 105 % of control | endpoint: median survival time, dose: 1.0 mg/kg/injection, schedule: Q01DX009 (ip), vehicle: saline 101 % of control and 108 % of control | endpoint: median survival time, dose: 2.0 mg/kg/injection, schedule: Q01DX009 (ip), vehicle: saline 108 % of control and 110 % of control

CC(=O)NCC(=O)[O][Sn]([c]1ccc(C)cc1)([c]1ccc(C)cc1)[c]1ccc(C)cc1
inactive: endpoint: mean survival time, dose: 0.19 mg/kg/injection, schedule: Q01DX009 (ip), vehicle: saline 97 % of control | endpoint: mean survival time, dose: 0.39 mg/kg/injection, schedule: Q01DX009 (ip), vehicle: saline 105 % of control | endpoint: mean survival time, dose: 0.78 mg/kg/injection, schedule: Q01DX009 (ip), vehicle: saline 103 % of control and 111 % of control | endpoint: mean survival time, dose: 1.56 mg/kg/injection, schedule: Q01DX009 (ip), vehicle: saline 100 % of control | endpoint: mean survival time, dose: 3.12 mg/kg/injection, schedule: Q01DX009 (ip), vehicle: saline 91 % of control

Cc1cccc(-n2cc(C#N)c3c(C)cc(C)nc32)c1
inactive: endpoint: mean survival time, dose: 100.0 mg/kg/injection, schedule: Q04DX003 (ip), vehicle: saline 106 % of control | endpoint: mean survival time, dose: 200.0 mg/kg/injection, schedule: Q04DX003 (ip), vehicle: saline 101 % of control | endpoint: mean survival time, dose: 400.0 mg/kg/injection, schedule: Q04DX003 (ip), vehicle: saline 97 % of control

COC1=C(C#N)CC2(C)C(CCC3C2CCC2(C)C(C(C)CCCC(C)C)CCC32)C1 (configuration not stated)
inactive: endpoint: mean survival time, dose: 100.0 mg/kg/injection, schedule: Q04DX003 (ip), vehicle: saline sonified 92 % of control | endpoint: mean survival time, dose: 200.0 mg/kg/injection, schedule: Q04DX003 (ip), vehicle: saline sonified 93 % of control | endpoint: mean survival time, dose: 400.0 mg/kg/injection, schedule: Q04DX003 (ip), vehicle: saline sonified 92 % of control

O=P(Oc1ccccc1)(Oc1ccccc1)C(Nc1ccccc1)c1ccccc1 (configuration not stated)
inactive: [6] 88 % of control | [7] 97 % of control | [8] 89 % of control

CCN(CC)C(=O)Nc1cc2c3c(c1)CCCN3CCC2
inactive: [12] 98 % of control | endpoint: mean survival time, dose: 200.0 mg/kg/injection, schedule: Q04DX003 (ip), vehicle: saline with Tween-80 96 % of control | endpoint: mean survival time, dose: 400.0 mg/kg/injection, schedule: Q04DX003 (ip), vehicle: saline with Tween-80 87 % of control

Oc1ccc(CCl)cc1O
inactive: endpoint: mean survival time, dose: 25.0 mg/kg/injection, schedule: Q01DX001 (ip), vehicle: saline with Tween-80 107 % of control | endpoint: mean survival time, dose: 50.0 mg/kg/injection, schedule: Q01DX001 (ip), vehicle: saline with Tween-80 100 % of control | [9] 89 % of control and 103 % of control

Cc1c2ccccc2c(C)c2c1ccc1ccccc12
inactive: [5] 106 % of control | [12] 106 % of control | endpoint: mean survival time, dose: 125.0 mg/kg/injection, schedule: Q04DX003 (ip), vehicle: Klucel (hydroxypropylcellulose) (HPC) 121 % of control

O=C(CBr)Nc1ccc2[nH]c3cnccc3c2c1
inactive: [13] 101 % of control | endpoint: mean survival time, dose: 200.0 mg/kg/injection, schedule: Q04DX002 (ip), vehicle: saline with Tween-80 104 % of control | endpoint: mean survival time, dose: 400.0 mg/kg/injection, schedule: Q04DX002 (ip), vehicle: saline with Tween-80 97 % of control

CCC(O)(c1ccccc1)C(O)(CC)c1ccccc1 (configuration not stated)
inactive: endpoint: mean survival time, dose: 50.0 mg/kg/injection, schedule: Q04DX002 (ip), vehicle: saline with Tween-80 96 % of control | [13] 86 % of control

CC1(C)CC(Br)(Cc2ccccc2)C(=O)c2ccccc21 (configuration not stated)
inactive: [6] 95 % of control | [7] 94 % of control | [8] 94 % of control

CCOC(=O)NC1CC(OC(=O)c2ccc(C)cc2)C(COC(=O)c2ccc(C)cc2)O1 (configuration not stated)
inactive: [6] 95 % of control | [7] 92 % of control | [8] 100 % of control
